Source: publication PMC10698032, “A monoacylglycerol lipase inhibitor showing therapeutic efficacy in mice without central side effects or dependence” (Nature Communications, 2023)

Columns and labels:
[1] = target: T1, hormone-sensitive lipase (HSL) (Homo sapiens, UniProt Q05469); experiment: gel-based competitive ABPP (FP-TAMRA) on HEK293T membranes expressing human HSL; format: cell-based
T1 construct: gene LIPE; full-length, C-terminal FLAG-tag, expressed in HEK293T

[2] = target: T2, 5-HT1A(h) (agonist radioligand) (Homo sapiens, UniProt P08908); experiment: biochemical; parameters: CEREP off-target panel, radioligand binding, inhibition of control specific binding; conditions: read-out: % Inhibition of Control Specific Binding, Mean
T2 construct: gene HTR1A; agonist radioligand

[3] = target: T3, 5-HT1B (h) (antagonist radioligand) (Homo sapiens, UniProt P28222); experiment: biochemical; parameters: CEREP off-target panel, radioligand binding, inhibition of control specific binding; conditions: read-out: % Inhibition of Control Specific Binding, Mean
T3 construct: gene HTR1B; antagonist radioligand

[4] = target: T4, 5-HT2B(h) (agonist radioligand) (Homo sapiens, UniProt P41595); experiment: biochemical; parameters: CEREP off-target panel, radioligand binding, inhibition of control specific binding; conditions: read-out: % Inhibition of Control Specific Binding, Mean
T4 construct: gene HTR2B; agonist radioligand

[5] = target: T5, A2A(h) (agonist radioligand)` (Homo sapiens, UniProt P29274); experiment: biochemical; parameters: CEREP off-target panel, radioligand binding, inhibition of control specific binding; conditions: read-out: % Inhibition of Control Specific Binding, Mean
T5 construct: gene ADORA2A; agonist radioligand

[6] = target: T6, AR(h) (agonist radioligand) (Homo sapiens, UniProt P10275); experiment: biochemical; parameters: CEREP off-target panel, radioligand binding, inhibition of control specific binding; conditions: read-out: % Inhibition of Control Specific Binding, Mean
T6 construct: agonist radioligand

[7] = target: T7, CB1(h) (agonist radioligand) (Homo sapiens, UniProt P21554); experiment: biochemical; parameters: CEREP off-target panel, radioligand binding, inhibition of control specific binding; conditions: read-out: % Inhibition of Control Specific Binding, Mean
T7 construct: gene CNR1; agonist radioligand

[8] = target: T8, CB2(h) (agonist radioligand) (Homo sapiens, UniProt P34972); experiment: biochemical; parameters: CEREP off-target panel, radioligand binding, inhibition of control specific binding; conditions: read-out: % Inhibition of Control Specific Binding, Mean
T8 construct: gene CNR2; agonist radioligand

[9] = target: T9, ETA(h) (agonist radioligand) (Homo sapiens, UniProt P25101); experiment: biochemical; parameters: CEREP off-target panel, radioligand binding, inhibition of control specific binding; conditions: read-out: % Inhibition of Control Specific Binding, Mean
T9 construct: gene EDNRA; agonist radioligand

[10] = target: T10, GR (h) (agonist radioligand) (Homo sapiens, UniProt P04150); experiment: biochemical; parameters: CEREP off-target panel, radioligand binding, inhibition of control specific binding; conditions: read-out: % Inhibition of Control Specific Binding, Mean
T10 construct: gene NR3C1; agonist radioligand

[11] = target: T11, H2(h) (antagonist radioligand) (Homo sapiens, UniProt P25021); experiment: biochemical; parameters: CEREP off-target panel, radioligand binding, inhibition of control specific binding; conditions: read-out: % Inhibition of Control Specific Binding, Mean
T11 construct: gene HRH2; antagonist radioligand

[12] = target: T12, M1(h) (antagonist radioligand) (Homo sapiens, UniProt P11229); experiment: biochemical; parameters: CEREP off-target panel, radioligand binding, inhibition of control specific binding; conditions: read-out: % Inhibition of Control Specific Binding, Mean
T12 construct: gene CHRM1; antagonist radioligand

[13] = target: T13, M3(h) (antagonist radioligand) (Homo sapiens, UniProt P20309); experiment: biochemical; parameters: CEREP off-target panel, radioligand binding, inhibition of control specific binding; conditions: read-out: % Inhibition of Control Specific Binding, Mean
T13 construct: gene CHRM3; antagonist radioligand

[14] = target: T14, N neuronal α4β2 (h) (agonist radioligand) (Homo sapiens, UniProt P17787+P43681); experiment: biochemical; parameters: CEREP off-target panel, radioligand binding, inhibition of control specific binding; conditions: read-out: % Inhibition of Control Specific Binding, Mean
T14 construct: gene CHRNB2; agonist radioligand

[15] = target: T15, kappa (h) (KOP) (agonist radioligand) (Homo sapiens, UniProt P41145); experiment: biochemical; parameters: CEREP off-target panel, radioligand binding, inhibition of control specific binding; conditions: read-out: % Inhibition of Control Specific Binding, Mean
T15 construct: gene OPRK1; agonist radioligand

[16] = target: T16, α1A(h) (antagonist radioligand) (Homo sapiens, UniProt P35348); experiment: biochemical; parameters: CEREP off-target panel, radioligand binding, inhibition of control specific binding; conditions: read-out: % Inhibition of Control Specific Binding, Mean
T16 construct: gene ADRA1A; antagonist radioligand

[17] = target: T17, α2A(h) (antagonist radioligand) (Homo sapiens, UniProt P08913); experiment: biochemical; parameters: CEREP off-target panel, radioligand binding, inhibition of control specific binding; conditions: read-out: % Inhibition of Control Specific Binding, Mean
T17 construct: gene ADRA2A; antagonist radioligand

[18] = target: T18, β2(h) (antagonist radioligand) (Homo sapiens, UniProt P07550); experiment: biochemical; parameters: CEREP off-target panel, radioligand binding, inhibition of control specific binding; conditions: read-out: % Inhibition of Control Specific Binding, Mean
T18 construct: gene ADRB2; antagonist radioligand

[19] = target: T19, δ (DOP) (h) (agonist radioligand) (Homo sapiens, UniProt P41143); experiment: biochemical; parameters: CEREP off-target panel, radioligand binding, inhibition of control specific binding; conditions: read-out: % Inhibition of Control Specific Binding, Mean
T19 construct: gene OPRD1; agonist radioligand
T19 sequence (P41143 whole entry): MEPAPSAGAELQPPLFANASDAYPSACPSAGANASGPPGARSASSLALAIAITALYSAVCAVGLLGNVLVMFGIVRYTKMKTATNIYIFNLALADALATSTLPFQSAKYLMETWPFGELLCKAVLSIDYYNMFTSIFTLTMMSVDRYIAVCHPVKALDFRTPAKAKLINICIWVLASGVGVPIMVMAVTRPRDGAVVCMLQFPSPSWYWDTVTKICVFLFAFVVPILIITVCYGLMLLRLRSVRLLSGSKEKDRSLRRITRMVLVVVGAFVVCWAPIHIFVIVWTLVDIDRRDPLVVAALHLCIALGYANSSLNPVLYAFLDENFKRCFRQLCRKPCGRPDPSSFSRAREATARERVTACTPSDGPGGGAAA

T15 sequence (P41145 whole entry): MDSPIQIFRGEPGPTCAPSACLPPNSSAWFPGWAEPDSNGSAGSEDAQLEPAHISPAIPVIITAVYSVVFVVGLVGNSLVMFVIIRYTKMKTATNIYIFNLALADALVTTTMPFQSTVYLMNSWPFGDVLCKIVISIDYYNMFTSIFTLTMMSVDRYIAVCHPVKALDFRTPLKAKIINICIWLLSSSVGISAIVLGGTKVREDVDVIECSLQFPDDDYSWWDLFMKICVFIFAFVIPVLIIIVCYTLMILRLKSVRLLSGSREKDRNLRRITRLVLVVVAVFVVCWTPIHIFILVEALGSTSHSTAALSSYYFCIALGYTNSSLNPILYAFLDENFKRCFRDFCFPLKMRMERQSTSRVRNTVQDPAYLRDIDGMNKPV
T5 sequence (P29274 whole entry): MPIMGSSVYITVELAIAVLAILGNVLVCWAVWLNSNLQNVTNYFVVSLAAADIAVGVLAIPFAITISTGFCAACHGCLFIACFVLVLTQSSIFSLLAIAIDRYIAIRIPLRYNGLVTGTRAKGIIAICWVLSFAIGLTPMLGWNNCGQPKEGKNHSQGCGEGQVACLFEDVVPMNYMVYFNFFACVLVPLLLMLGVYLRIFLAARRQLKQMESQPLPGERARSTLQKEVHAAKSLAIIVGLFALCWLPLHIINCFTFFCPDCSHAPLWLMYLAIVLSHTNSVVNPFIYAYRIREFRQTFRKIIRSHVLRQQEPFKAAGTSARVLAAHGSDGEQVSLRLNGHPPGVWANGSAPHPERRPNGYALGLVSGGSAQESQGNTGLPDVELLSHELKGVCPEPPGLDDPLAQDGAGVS
T14 sequence (P17787 whole entry): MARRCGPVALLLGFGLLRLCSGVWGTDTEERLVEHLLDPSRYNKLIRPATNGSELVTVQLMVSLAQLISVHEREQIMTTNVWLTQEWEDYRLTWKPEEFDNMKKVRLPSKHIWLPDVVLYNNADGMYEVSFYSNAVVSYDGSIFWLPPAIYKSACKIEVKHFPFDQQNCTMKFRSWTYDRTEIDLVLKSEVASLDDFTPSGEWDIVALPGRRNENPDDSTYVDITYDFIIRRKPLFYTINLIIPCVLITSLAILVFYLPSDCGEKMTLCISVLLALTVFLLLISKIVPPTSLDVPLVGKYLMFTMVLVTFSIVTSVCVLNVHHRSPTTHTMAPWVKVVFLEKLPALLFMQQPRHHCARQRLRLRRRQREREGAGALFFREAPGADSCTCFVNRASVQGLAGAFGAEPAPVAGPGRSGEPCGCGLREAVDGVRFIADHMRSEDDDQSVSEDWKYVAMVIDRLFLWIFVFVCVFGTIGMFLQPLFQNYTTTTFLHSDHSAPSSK
T14 sequence (P43681 whole entry): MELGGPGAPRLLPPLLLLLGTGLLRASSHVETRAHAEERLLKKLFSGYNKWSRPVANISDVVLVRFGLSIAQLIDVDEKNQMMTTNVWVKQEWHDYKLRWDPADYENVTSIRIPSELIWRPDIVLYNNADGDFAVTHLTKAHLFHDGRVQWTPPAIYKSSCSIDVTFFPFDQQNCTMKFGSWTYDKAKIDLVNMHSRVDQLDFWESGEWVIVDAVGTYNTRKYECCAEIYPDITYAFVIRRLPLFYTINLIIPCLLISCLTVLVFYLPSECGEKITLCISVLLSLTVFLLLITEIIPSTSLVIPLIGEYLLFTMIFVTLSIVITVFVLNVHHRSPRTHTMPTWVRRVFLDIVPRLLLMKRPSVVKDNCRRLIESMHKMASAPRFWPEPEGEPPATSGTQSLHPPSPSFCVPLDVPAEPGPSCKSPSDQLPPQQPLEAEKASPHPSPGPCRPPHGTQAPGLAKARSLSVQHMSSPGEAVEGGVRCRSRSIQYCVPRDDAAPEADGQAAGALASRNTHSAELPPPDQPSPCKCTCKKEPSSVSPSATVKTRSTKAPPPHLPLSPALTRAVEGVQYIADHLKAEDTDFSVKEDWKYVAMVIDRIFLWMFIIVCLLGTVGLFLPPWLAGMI
T6 sequence (P10275 whole entry): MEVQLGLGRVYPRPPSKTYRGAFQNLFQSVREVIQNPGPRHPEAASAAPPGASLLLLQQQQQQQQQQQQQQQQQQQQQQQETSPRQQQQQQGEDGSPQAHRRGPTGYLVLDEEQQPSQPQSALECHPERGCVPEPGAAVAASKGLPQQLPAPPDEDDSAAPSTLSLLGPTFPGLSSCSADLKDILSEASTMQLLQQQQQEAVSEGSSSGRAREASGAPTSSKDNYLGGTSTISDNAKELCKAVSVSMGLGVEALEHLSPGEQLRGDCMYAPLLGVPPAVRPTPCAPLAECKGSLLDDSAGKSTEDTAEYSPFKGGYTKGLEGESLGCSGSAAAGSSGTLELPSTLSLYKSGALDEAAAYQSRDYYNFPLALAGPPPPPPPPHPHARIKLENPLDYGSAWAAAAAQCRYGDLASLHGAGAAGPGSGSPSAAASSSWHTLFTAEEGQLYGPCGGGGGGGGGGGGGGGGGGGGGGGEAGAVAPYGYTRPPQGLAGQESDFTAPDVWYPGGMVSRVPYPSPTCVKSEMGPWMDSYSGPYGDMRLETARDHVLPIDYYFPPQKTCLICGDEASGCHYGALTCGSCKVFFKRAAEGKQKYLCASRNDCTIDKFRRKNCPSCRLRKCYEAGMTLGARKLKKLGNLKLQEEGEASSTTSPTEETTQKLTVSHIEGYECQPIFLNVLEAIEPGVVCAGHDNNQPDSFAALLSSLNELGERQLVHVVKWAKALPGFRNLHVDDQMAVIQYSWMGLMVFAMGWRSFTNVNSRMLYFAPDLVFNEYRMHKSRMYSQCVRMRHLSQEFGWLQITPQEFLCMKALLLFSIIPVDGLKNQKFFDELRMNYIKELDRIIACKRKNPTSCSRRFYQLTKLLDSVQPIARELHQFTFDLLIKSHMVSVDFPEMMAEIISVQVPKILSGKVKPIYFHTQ
T11 sequence (P25021 whole entry): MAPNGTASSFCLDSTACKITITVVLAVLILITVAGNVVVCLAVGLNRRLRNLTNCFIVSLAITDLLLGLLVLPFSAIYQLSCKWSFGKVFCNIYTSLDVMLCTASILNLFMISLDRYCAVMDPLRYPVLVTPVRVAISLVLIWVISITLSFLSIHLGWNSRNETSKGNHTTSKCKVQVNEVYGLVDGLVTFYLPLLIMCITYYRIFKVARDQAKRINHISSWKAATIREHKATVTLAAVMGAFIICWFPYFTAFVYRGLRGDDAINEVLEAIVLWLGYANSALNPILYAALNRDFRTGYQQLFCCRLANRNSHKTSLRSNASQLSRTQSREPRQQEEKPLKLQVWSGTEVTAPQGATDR
T13 sequence (P20309 whole entry): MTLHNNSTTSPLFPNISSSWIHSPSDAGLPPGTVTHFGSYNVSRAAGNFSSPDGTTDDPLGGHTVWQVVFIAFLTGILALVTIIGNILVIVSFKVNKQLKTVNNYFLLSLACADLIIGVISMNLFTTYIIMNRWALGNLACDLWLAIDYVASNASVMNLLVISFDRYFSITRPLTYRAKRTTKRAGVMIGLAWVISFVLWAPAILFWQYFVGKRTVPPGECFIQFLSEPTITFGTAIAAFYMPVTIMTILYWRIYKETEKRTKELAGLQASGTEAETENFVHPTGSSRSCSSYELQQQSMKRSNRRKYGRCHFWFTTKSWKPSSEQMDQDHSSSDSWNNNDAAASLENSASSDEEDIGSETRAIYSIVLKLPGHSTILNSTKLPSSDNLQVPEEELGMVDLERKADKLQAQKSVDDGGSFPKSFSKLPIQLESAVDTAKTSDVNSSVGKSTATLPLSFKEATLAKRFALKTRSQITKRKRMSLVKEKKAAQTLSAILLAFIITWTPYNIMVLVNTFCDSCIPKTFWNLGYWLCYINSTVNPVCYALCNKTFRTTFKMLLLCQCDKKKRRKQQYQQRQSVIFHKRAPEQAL
T18 sequence (P07550 whole entry): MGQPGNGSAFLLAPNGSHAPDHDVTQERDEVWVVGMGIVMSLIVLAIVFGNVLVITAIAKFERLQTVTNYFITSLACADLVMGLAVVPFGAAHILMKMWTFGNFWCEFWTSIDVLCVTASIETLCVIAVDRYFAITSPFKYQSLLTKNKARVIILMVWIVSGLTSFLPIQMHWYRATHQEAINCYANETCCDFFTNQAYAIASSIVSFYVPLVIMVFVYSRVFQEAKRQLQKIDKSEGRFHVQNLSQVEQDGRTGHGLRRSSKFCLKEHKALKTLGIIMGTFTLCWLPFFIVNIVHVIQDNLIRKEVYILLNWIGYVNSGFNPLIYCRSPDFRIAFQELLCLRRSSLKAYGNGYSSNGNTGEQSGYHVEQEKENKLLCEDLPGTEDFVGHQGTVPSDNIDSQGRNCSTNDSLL
T3 sequence (P28222 whole entry): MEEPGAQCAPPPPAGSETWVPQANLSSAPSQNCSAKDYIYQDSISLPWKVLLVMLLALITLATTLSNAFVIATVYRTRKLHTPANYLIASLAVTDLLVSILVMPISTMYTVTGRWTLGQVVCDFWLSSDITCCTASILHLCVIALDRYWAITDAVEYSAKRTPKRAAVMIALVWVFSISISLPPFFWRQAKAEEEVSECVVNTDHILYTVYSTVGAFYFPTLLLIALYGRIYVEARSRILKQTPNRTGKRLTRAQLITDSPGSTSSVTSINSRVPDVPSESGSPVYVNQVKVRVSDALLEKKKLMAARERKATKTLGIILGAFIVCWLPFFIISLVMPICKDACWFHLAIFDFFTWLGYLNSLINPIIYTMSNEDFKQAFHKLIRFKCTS

CCC(F)(F)C(=O)C[S+]([O-])c1ccc(C(=O)N2CCN(c3cccc(Cl)c3)[C@@H](C)[C@@H]2C)cc1Cl (mixture of isomers) [compound 3, LEI-515]
gel-based competitive ABPP (FP-TAMRA) on HEK293T membranes expressing human HSL [1]: confirmed by gel-based ABPP experiments using membrane fractions of HEK293T cells expressing recombinant human or mouse HSL
inhibition at 10 µM [2]: 10.6%
inhibition at 10 µM [3]: 24.2%
inhibition at 10 µM [4]: 27.6%
inhibition at 10 µM [5]: 11.7%
inhibition at 10 µM [6]: -7%
inhibition at 10 µM [7]: 22.3%
inhibition at 10 µM [8]: -11.9%
inhibition at 10 µM [9]: -8%
inhibition at 10 µM [10]: 30.2%
inhibition at 10 µM [11]: -26%
inhibition at 10 µM [12]: -29.5%
inhibition at 10 µM [13]: -19.9%
inhibition at 10 µM [14]: -10.5%
inhibition at 1 µM [15]: 21.7%
inhibition at 10 µM [15]: 59.5%
inhibition at 10 µM [16]: 3.5%
inhibition at 10 µM [17]: 18.3%
inhibition at 10 µM [18]: 26.8%
inhibition at 10 µM [19]: 48.3%
